Tested on: hESC-derived PAX2-nGFP+ otic progenitors
Assay: ventral/dorsal otic marker expression in otic progenitors (D20 scRNA-seq, D25 immunofluorescence)
Format: cell-based, human
Experimental: PAX2-2A-nGFP/POU4F3-2A-ntdTomat hESCs (passages 22-50) were maintained and passaged in Essential 8 Flex Medium (Thermo Fisher, A2858501) supplemented with 100 μg/ml Normocin (E8fn) on recombinant human Vitronectin-N(Thermo Fisher, A14700)-coated 6-well plates. Human inner ear organoids were derived from hESCs based on the inventors' previous protocol 8.10 with major modifications. Briefly, hESCs were dissociated with StemPro Accutase (Thermo Fisher, A1110501) and distributed at 3500 cells per well onto low-adhesion 96-well U-bottom plates in 100 μL E8fn containing 20 μM Y-27632 (Stemgent, 04-0012-02) and forcibly aggregated at 120 g for 5 minutes. 100 μL of E8fn was added to each well after >4 h of incubation. Induction of non-neural epithelium occurred following 48 h of aggregation, marking differentiation day 0, as follows: aggregates were washed extensively in DMEM:F12 with HEPES buffer (DFH) (Thermo Fisher, 11320033) and transferred to new 96-well U-bottom plates in 100 μL of E6 medium (Thermo Fisher, A1516401) with Normocin (E6n) containing 4 ng mL^−1 FGF-2 (StemCell Technologies, 780003), 10 μM SB-431542 (Stemgent, 04-0010-05), and 2% growth factor reduced (GFR) Matrigel (Corning, 354230). On day 3 of differentiation, 25 μL of E6n containing 50 ng/ml FGF-2 and 200 nM LDN-193189 (Stemgent, 04-0074-02) was added to each well. […]

c1ccc2c(Oc3nc(Nc4ccc(N5CCOCC5)cc4)c4ncn(C5CCCCC5)c4n3)cccc2c1 [PUR, 9H-Purin-6-amine, 9-cyclohexyl-N-[4-(4-morpholinyl)phenyl]-2-(1-naphthalenyloxy)-]
ventral otic marker expression (D20-D25 organoids): not sufficient | expression of SHH pathway genes SULF1, LRP2, GAS1, PTCH1 (D20 otic progenitors): attenuated
